Source: ChEMBL document CHEMBL1201862, “PubChem BioAssay data set” (2004)
The source made the active and inactive calls.

What was measured:
Genome polyprotein = Genome polyprotein (dengue virus type 2, UniProt P29990); experiment: Dengue-2 NS5 methyltransferase inhibitors, primary screen, biochemical, confirmation dose response (AID 588689); format: functional
[1] = target: DNA dC->dU-editing enzyme APOBEC-3A (Homo sapiens, UniProt P31941); experiment: Dose Response confirmation of small molecule APOBEC3A DNA Deaminase Inhibitors via a fluorescence-based single-stranded DNA deaminase assay. [Related pubchem assays (depositor defined):AID493011, AID493024]; format: functional
[2] = target: DNA dC->dU-editing enzyme APOBEC-3G (Homo sapiens, UniProt Q9HC16); format: functional;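 also: Dose-response counterscreen measuring inhibition of APOBEC3G DNA deaminase activity, run while confirming APOBEC3A inhibitors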
[3] = target: Luciferin 4-monooxygenase (Photinus pyralis, UniProt P08659); experiment: firefly luciferase enzyme inhibitors, dose response, biochemical, luminescence (AID 1891)
HEK293 = experiment: inhibitors of LMP1-driven NF-kB reporter, dose response, cell-based, HEK293, luciferase, cherry-pick (AID 588343); format: functional; settings: Homo sapiens
[4] = Luminescence Cell-Based Dose Confirmation HTS to Identify Inhibitors of Platelet Dense Granule Release. [Related pubchem assays: 1663 (Primary HTS), 1678 (Summary of Project)]; format: functional
[5] = target: T1, Short transient receptor potential channel 4 (Mus musculus, UniProt Q9QUQ5); experiment: mouse TRPC4 channel inhibitors, dose response, cell-based, HEK293 TRPC4/mu-opioid, Fluo-4 calcium (AID 434942); format: functional;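 also: potency of inhibitors blocking the TRPC4 calcium response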
T1 sequence (Q9QUQ5 whole entry): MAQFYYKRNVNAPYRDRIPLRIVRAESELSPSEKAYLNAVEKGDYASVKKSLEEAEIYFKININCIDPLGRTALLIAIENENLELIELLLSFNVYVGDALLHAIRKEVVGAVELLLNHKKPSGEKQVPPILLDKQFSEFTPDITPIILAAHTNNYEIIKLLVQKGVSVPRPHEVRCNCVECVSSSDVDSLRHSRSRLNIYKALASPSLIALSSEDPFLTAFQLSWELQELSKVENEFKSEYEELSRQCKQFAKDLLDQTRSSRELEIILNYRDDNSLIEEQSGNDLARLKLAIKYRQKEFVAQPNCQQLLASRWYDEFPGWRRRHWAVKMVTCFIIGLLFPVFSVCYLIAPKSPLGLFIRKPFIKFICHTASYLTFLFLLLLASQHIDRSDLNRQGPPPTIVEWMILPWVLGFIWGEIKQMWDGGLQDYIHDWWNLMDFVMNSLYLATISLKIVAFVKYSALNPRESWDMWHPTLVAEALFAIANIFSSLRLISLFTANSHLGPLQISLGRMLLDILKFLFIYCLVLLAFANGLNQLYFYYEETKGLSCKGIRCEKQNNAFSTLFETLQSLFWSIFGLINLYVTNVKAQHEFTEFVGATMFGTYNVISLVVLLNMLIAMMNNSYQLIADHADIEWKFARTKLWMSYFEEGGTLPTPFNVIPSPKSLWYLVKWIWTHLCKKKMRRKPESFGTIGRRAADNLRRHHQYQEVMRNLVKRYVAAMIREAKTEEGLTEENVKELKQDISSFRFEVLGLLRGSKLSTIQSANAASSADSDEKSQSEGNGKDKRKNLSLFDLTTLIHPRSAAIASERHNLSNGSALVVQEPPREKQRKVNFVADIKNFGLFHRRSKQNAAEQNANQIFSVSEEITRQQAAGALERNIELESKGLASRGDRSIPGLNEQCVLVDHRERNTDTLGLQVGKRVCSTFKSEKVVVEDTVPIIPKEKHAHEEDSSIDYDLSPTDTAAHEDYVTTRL

Estrogen receptor = target: T2, Estrogen receptor (Homo sapiens, UniProt P03372);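 also: potency for inhibiting coactivator peptide recruitment to the receptor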
T2 sequence (P03372 whole entry): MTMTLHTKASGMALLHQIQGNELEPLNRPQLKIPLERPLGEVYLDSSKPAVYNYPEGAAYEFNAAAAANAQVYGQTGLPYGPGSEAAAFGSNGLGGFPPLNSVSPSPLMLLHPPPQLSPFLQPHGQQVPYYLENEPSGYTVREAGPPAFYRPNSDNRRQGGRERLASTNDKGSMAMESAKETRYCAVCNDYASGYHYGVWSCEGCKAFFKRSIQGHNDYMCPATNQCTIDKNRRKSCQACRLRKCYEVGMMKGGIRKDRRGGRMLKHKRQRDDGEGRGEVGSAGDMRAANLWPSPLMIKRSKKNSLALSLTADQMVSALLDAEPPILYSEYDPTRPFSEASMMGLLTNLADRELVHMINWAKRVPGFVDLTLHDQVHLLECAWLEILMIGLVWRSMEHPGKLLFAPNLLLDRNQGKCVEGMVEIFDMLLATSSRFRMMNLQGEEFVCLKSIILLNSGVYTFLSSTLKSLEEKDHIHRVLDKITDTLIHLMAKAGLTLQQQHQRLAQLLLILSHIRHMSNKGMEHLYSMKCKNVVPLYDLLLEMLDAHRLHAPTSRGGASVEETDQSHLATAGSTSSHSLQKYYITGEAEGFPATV

[6] = target: Peroxisome proliferator-activated receptor gamma/Nuclear receptor coactivator 3 (Homo sapiens, UniProt P37231); format: functional;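 also: agonist potency for raising coactivator recruitment to the receptor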
[7] = target: Peroxisome proliferator-activated receptor gamma/Nuclear receptor coactivator 2 (Homo sapiens, UniProt P37231); format: functional;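 also: agonist potency for raising coactivator recruitment to the receptor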
[8] = target: Peroxisome proliferator-activated receptor gamma/Nuclear receptor coactivator 1 (Homo sapiens, UniProt P37231); format: functional;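 also: agonist potency as compounds enhance coactivator SRC-1 recruitment to PPARgamma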
SUMO-activating enzyme = SUMO-activating enzyme (Homo sapiens, UniProt Q9UBT2); experiment: SUMOylation inhibitor hit validation, confirmation, SUMOylation inhibitor project, biochemical, AlphaScreen (AID 2018); format: functional
[9] = target: T3, Rac GTPase-activating protein 1 (Homo sapiens, UniProt Q9H0H5); experiment: MgcRacGAP GTPase-activating activity inhibitors, confirmation, biochemical, ADP Hunter fluorescence, primary and confirmatory (AID 624330); format: functional
T3 sequence (Q9H0H5 whole entry): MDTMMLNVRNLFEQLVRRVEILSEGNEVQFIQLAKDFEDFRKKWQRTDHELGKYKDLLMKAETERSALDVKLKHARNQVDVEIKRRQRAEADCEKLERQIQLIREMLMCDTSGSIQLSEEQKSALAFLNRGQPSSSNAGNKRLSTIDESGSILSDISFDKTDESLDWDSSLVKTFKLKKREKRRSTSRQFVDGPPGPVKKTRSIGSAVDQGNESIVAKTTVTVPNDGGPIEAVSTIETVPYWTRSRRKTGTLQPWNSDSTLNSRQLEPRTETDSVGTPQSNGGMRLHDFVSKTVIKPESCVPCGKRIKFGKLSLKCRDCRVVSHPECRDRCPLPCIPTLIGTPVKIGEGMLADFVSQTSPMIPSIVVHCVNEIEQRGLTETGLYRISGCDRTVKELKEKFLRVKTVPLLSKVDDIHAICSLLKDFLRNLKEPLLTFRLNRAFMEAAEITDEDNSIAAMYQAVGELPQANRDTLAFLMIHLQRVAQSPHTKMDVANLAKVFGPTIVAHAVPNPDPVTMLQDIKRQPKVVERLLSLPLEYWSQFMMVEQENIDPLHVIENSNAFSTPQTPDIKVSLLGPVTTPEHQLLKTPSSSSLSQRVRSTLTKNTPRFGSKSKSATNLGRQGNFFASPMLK

Protein Tat = target: T4, Protein Tat (Human immunodeficiency virus type 1 group M subtype B (isolate HXB2)(HIV-1), UniProt P04608); format: functional;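 also: tat binding to TAR RNA read out by fluorescence polarization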
T4 sequence (P04608 whole entry): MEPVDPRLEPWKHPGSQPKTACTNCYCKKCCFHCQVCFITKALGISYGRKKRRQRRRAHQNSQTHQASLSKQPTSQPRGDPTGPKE

[10] = target: T5, Heat shock factor protein 1 (Mus musculus, UniProt P38532); experiment: inhibition of MG132-induced HSE-luciferase signal, confirmation, cell-based, NIH3T3, luminescence, dose retest (AID 2382); format: functional;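 also: NIH3T3 fibroblasts with HSF1-driven luciferase reporter stressed by proteasome inhibitor MG132; luminescence from HSF1-driven luciferase expression after 8 hours of MG132 stress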
T5 sequence (P38532 whole entry): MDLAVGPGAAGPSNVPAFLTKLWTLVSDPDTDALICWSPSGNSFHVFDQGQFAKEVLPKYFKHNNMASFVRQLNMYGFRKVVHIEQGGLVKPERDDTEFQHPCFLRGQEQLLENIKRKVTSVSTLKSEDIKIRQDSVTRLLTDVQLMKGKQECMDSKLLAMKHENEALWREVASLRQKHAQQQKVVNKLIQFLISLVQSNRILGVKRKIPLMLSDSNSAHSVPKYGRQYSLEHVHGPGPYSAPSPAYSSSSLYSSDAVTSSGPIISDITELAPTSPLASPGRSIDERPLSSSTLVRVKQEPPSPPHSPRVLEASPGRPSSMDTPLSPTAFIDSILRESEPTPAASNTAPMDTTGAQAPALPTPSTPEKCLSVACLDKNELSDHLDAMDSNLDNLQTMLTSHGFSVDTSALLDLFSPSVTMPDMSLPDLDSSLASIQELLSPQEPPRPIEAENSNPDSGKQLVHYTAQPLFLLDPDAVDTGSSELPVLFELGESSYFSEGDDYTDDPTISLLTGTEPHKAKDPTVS

[11] = HepG2 cell cytotoxicity, dose response, cytotoxicity control for Shn3 inhibitor project, CellTiter-Glo, cherry-picked (AID 624134); format: functional, cell-based
[12] = target: T5, Heat shock factor protein 1; experiment: HSF1 potentiators in luciferase reporter cells, confirmation, cell-based, NIH3T3, luminescence, dose retest (AID 435004); format: functional;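 also: stress induced by proteasome inhibitor MG132 added 30 min after compound; luciferase reporter driven by HSF1 response element in NIH3T3 cells; actives raise luminescence as potentiators of the MG132 stress response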
[13] = control 3'UTR Renilla luciferase suppression, dose response, counter-screen for Shn3 inhibitor project, cell-based, Clone20-Shn3RL, cherry-picked (AID 624133); format: functional
[14] = Shn3 3'UTR reporter inhibitors, dose response, cell-based, Clone20 osteoblasts, firefly luciferase, cherry-picked (AID 624132); format: functional;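 also: firefly luciferase luminescence from reporter carrying the Shn3 3'UTR in osteoblasts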
[15] = inhibitors of PGC1a acetylation in cells, dose response, cell-based, cherry-picked samples (AID 720514); format: functional;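 also: potency may reflect raised or lowered acetylation signal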
Cytochrome P450 2C9 = Cytochrome P450 2C9 (Homo sapiens, UniProt P11712)
Large T antigen = Large T antigen (Simian virus 40, UniProt P03070); format: functional, Betapolyomavirus macacae;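 also: Confirmatory-stage PubChem screen for compounds that inhibit SV40 T antigen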

Sequence of Genome polyprotein (P29990 2492-3391 limits assumed): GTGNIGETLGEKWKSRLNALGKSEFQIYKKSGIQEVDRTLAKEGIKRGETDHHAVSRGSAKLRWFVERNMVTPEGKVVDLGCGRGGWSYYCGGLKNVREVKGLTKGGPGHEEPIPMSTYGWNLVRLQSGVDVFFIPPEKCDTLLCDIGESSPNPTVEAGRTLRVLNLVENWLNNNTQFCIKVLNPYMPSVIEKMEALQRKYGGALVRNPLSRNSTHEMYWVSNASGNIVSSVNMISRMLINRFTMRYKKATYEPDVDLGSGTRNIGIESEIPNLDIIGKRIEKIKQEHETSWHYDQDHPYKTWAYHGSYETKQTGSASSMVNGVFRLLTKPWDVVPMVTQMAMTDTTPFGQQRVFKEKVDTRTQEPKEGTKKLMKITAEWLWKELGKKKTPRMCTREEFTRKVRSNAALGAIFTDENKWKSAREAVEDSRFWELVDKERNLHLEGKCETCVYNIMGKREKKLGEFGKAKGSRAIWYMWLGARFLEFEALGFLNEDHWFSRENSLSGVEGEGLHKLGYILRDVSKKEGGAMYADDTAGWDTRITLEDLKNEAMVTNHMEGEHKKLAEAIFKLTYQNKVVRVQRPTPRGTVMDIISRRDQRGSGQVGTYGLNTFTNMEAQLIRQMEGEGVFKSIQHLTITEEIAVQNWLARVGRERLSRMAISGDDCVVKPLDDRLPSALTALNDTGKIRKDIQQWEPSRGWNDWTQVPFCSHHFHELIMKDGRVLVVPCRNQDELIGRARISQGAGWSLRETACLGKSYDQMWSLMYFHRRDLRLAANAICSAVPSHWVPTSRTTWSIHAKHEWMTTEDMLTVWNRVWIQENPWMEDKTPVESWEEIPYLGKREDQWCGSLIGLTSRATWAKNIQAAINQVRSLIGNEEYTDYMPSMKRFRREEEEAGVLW
Sequence of Peroxisome proliferator-activated receptor gamma/Nuclear receptor coactivator 2 (P37231 whole entry): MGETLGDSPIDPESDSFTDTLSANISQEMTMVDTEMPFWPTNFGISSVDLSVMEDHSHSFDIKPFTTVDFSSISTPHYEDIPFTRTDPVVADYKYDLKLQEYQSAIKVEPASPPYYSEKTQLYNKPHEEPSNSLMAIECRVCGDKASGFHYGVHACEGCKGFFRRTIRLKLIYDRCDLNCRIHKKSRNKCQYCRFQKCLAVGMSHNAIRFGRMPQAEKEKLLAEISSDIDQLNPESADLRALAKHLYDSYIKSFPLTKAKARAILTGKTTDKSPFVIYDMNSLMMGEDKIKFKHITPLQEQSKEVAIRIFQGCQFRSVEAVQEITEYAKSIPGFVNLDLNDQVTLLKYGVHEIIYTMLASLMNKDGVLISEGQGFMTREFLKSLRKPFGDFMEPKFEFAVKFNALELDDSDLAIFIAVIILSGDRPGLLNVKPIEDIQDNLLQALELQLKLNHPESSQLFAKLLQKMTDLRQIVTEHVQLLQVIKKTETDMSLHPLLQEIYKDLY
Sequence of Peroxisome proliferator-activated receptor gamma/Nuclear receptor coactivator 2 (Q15596 whole entry, further chain): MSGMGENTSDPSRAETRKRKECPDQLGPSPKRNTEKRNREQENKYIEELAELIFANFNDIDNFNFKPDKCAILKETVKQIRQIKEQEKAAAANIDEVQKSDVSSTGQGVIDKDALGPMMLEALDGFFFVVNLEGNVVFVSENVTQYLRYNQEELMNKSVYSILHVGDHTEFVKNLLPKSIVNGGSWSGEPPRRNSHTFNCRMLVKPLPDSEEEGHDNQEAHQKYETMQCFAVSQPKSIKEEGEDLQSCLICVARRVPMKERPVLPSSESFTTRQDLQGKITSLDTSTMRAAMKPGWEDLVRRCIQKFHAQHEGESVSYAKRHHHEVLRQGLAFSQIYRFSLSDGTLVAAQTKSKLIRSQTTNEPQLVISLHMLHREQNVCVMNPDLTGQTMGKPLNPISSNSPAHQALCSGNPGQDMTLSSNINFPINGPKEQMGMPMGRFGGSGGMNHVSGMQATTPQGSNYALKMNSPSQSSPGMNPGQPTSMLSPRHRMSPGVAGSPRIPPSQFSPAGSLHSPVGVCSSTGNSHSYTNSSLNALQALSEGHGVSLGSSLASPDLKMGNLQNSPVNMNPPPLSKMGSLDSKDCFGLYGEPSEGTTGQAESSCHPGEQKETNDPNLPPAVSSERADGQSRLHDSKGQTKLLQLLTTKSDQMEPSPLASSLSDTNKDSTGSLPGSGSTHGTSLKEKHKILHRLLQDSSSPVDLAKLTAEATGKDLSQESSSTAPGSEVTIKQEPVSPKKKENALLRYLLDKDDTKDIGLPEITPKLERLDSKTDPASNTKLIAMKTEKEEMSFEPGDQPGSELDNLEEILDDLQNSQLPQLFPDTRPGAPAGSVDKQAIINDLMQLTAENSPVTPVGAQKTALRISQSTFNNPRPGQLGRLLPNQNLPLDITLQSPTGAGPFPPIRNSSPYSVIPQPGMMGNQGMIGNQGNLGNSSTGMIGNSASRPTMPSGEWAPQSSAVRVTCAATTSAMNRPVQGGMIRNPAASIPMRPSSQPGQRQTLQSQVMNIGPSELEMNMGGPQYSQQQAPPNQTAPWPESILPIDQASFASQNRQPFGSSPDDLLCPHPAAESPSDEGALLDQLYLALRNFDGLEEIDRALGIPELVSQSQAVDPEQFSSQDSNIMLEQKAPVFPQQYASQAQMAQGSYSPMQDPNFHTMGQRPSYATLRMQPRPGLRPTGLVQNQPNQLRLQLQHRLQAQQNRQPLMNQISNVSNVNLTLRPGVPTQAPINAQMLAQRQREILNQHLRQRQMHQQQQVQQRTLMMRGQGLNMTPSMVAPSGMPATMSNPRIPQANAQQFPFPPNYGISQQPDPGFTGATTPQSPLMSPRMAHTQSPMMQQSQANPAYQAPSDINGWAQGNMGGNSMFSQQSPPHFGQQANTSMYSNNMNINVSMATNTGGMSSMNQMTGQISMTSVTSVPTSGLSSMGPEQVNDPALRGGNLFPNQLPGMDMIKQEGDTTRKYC
Sequence of Peroxisome proliferator-activated receptor gamma/Nuclear receptor coactivator 1 (P37231 whole entry): as the sequence (P37231 whole entry) above
Sequence of Peroxisome proliferator-activated receptor gamma/Nuclear receptor coactivator 1 (Q15788 whole entry, further chain): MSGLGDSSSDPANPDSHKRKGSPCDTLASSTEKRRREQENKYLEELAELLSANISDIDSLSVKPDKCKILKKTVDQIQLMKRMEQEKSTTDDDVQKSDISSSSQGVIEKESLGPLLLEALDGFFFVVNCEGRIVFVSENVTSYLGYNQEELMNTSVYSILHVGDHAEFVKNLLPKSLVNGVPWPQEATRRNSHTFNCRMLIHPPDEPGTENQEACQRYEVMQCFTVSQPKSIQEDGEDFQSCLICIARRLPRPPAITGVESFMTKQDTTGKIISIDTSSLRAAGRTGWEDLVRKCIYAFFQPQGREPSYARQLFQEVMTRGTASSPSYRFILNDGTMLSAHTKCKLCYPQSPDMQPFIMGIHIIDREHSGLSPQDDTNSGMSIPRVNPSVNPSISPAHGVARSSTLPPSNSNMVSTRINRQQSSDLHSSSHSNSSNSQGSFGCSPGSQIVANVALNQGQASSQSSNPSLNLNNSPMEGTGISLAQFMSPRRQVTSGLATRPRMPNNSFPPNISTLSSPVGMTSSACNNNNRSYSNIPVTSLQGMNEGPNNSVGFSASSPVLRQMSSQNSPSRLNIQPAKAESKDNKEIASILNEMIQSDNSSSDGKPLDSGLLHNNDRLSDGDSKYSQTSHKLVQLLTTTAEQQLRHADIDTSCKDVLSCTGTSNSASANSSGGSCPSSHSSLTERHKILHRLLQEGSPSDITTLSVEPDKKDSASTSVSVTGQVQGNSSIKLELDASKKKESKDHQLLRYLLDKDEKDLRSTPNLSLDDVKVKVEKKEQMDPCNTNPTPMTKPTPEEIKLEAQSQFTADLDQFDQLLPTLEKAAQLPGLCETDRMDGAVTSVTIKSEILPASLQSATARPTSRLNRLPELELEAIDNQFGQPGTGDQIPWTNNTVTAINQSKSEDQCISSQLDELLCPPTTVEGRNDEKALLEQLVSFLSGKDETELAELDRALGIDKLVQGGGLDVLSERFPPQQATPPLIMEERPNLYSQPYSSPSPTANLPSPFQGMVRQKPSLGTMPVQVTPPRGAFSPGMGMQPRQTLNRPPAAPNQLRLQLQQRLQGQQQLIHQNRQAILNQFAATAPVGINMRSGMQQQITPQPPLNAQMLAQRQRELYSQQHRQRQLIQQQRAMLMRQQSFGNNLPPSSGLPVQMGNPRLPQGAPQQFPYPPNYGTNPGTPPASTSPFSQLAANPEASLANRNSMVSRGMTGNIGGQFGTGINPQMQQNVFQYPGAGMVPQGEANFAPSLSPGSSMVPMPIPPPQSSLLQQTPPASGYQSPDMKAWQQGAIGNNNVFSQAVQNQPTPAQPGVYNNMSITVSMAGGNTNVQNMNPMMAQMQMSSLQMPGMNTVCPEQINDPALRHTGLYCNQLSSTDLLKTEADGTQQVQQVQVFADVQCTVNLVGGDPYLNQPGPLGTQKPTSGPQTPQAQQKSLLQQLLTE
Sequence of DNA dC->dU-editing enzyme APOBEC-3A (P31941 whole entry): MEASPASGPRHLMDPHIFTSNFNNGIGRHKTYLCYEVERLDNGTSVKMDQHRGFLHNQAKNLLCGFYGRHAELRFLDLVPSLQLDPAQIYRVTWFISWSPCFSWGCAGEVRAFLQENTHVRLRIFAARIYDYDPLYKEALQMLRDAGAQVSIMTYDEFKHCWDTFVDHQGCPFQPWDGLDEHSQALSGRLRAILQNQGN

## CCn1c2ccccc2c2cc(NC(=O)c3ccccc3-c3ccccc3C(=O)O)ccc21
Genome polyprotein
  IC50: 42.9 µM (active)

## NC(=O)C[N+]1(CC#CC(O)(c2ccccc2)c2ccccc2)CCCC1
[1]
  IC50: 2.74 µM (active)
[2]
  IC50: 2.59 µM (active)

## COCc1cc(C)nc(Sc2nc3c(c(=O)n(C)c(=O)n3C)n2C)c1C#N
[1]
  IC50: 7.99 µM (active)
[2]
  IC50: 8.47 µM (active)

## COc1ccc(NC(=O)c2ccccn2)cc1
[3]
  EC50: 9.53 µM (active)
HEK293
  AC50: 3.65 µM (active)
[4]
  EC50: 10.5 µM (active)

## O=C(O)C1=CC[C@@H](c2ccc(Cl)cc2)N(S(=O)(=O)c2ccc(Cl)cc2)[C@H]1c1cccc(Cl)c1
Genome polyprotein
  IC50: 37.4 µM (active)

## CSc1nsc(NC(=O)Cc2ccccc2)n1
[5]
  EC50: 5.31 µM (active)

## Cc1cc(C)c(NC(=O)CSc2nc3ccc(NC(=O)CSc4nnnn4Cc4ccccc4)cc3s2)c(C)c1
Estrogen receptor
  IC50: > 50 µM (not active)

## COC(=O)C1=C(C)N(CC2CC2)C(NCc2cc(OC)c(OC)c(OC)c2)=N[C@H]1c1ccccc1
[1]
  IC50: 8.83 µM (active)
[2]
  IC50: 14 µM (active)

## CCOC(=O)CCC(=O)Nc1ccccc1C(N)=O
Estrogen receptor
  IC50: > 50 µM (not active)

## COC(=O)c1c(NC(=O)CSc2nc[nH]n2)sc(C)c1C
[5]
  EC50: 4.73 µM (active)

## COc1ccc(-c2c(C#N)c(C)nc3c2C(=O)c2ccccc2-3)cc1
[6]
  EC50: 48.3 µM (not active)
[7]
  EC50: 32.6 µM (not active)
[8]
  EC50: 55.3 µM (not active)

## COC(=O)c1ccc2ccn(CC(=O)NC(C)C)c2c1
[1]
  IC50: 3.92 µM (active)
[2]
  IC50: 4.95 µM (active)

## Cc1ccc(C2CN(C)CC2C(=O)c2ccc(F)cc2)cc1 (stereo not given)
[5]
  EC50: 13.3 µM (active)

## N#Cc1c(N)nc(SCC(=O)NC2CCCCC2)c(C#N)c1-c1ccc(Cl)cc1
[6]
  EC50: 37.1 µM (not active)
[7]
  EC50: 21.9 µM (not active)
[8]
  EC50: 34.6 µM (not active)

## Cc1ccc(CNC(=O)COc2ccc(C(=O)c3ccc(F)cc3)cc2)cc1
[6]
  EC50: > 79.4 µM (not active)
[7]
  EC50: > 79.4 µM (not active)
[8]
  EC50: > 79.4 µM (not active)

## CSc1ccc(C(c2c(C(=O)O)[nH]c3ccccc23)c2c(C(=O)O)[nH]c3ccccc23)cc1
Genome polyprotein
  IC50: 48.8 µM (active)

## O=C(COC(=O)c1cc(NS(=O)(=O)c2cccs2)ccc1O)Nc1cc(Cl)ccc1Cl
SUMO-activating enzyme
  IC50: 28.8 µM (active)

## O=C(O)CCn1cc(C=C2C(=O)NC(=O)NC2=O)c(-c2ccc(Br)cc2)n1
Genome polyprotein
  IC50: 7.97 µM (active)
[9]
  IC50: 95.3 µM (active)

## COc1ccccc1C(=O)Nc1nc(-c2cccs2)c(NC(C)=O)s1
Estrogen receptor
  IC50: 19 µM (active)

## CCOC(=O)/C=C1\SCC(=O)N1CC(=O)NC(C)c1ccc(F)cc1 (stereo not given)
Protein Tat
  IC50: > 100 µM (active)

## Fc1ccc(-c2nnc(-n3nnc4ccccc43)c3ccccc23)cc1
Estrogen receptor
  IC50: 26.3 µM (active)

## N#Cc1c(NC(=O)CSc2ncccn2)oc(-c2ccccc2)c1-c1ccccc1
[10]
  EC50: 9.25 µM (active)
Estrogen receptor
  IC50: 9.58 µM (active)

## Fc1ccc(/C=C2\CCCC3=C2Nc2ncnn2C3c2ccc(F)cc2)cc1 (stereo not given)
[11]
  AC50: 37.9 µM (active)
[12]
  EC50: 20.7 µM (active)
[13]
  AC50: 11.3 µM (active)
[14]
  AC50: 8.47 µM (active)
[15]
  AC50: 9.46 µM (active)

## Cc1nn(-c2ccc(Cl)cc2)c2sc(C(=O)c3c(N)n(C)c(=O)n(C)c3=O)cc12
[6]
  EC50: 33.3 µM (not active)
[7]
  EC50: 18 µM (not active)
[8]
  EC50: 18.4 µM (not active)
Cytochrome P450 2C9
  AC50: 25.1 µM (inconclusive)

## CCC(C)(C)n1nnnc1C(c1ccc2ncccc2c1)N1CCN(c2ccc(O)cc2)CC1 (stereo not given)
Protein Tat
  IC50: > 100 µM (active)
Large T antigen
  IC50: 34.6 µM (active)

## Cc1ccc([C@H]2C(C(=O)O)=CC[C@@H](c3ccc(Cl)c(Cl)c3)N2S(=O)(=O)c2ccc(C)cc2)cc1
Genome polyprotein
  IC50: 38.8 µM (active)

## CCN1C(=NCC2CC2)N[C@@H](c2ccccc2)C(C(=O)OC)=C1C
[1]
  IC50: 3.37 µM (active)
[2]
  IC50: 8.56 µM (active)
